Earlier results as cited in patent US20050222163A1, “Combinations of signal transduction inhibitors” (PFIZER INC, priority 2004, published 2005).

Experiments:
[1] = tested on: phosphorylated ERK1 and ERK2; settings: background statement, result in words
[2] = comparison with predecessor CI-1040, result in words

SMILES | levels of phosphorylated ERK1 and ERK2 [1] | metabolic stability relative to CI-1040 [2]
O=C(NOCC1CC1)c1ccc(F)c(F)c1Nc1ccc(I)cc1Cl [CI-1040, 2-(2-Chloro-4-iodo-phenylamino)-N-cyclopropylmethoxy-3,4-difluoro-benzamide, reference compound] | significant decrease | 
O=C(NOC[C@H](O)CO)c1ccc(F)c(F)c1Nc1ccc(I)cc1F [N-[(R)-2,3-Dihydroxy-propoxy]-3,4-difluoro-2-(2-fluoro-4-iodo-phenylamino)-benzamide] | significantly inhibits the phosphorylation of ERK1 and ERK2 | metabolically more stable
